Results taken from patent publication US5574043A, “Certain [1,2,5-thiadiazol-4-yl]-1-azabicyclo [3.2.1]octane derivatives and their pharmaceutical uses” (Novo Nordisk A/S, priority 1995, dated 1996).
Where a name gives a salt, the structure may show the parent alone.

What follows are compounds tested against muscarinic acetylcholine receptors (assay: Inhibition of specific binding of 3H-Oxotremorine-M (OXO BINDING) in vitro, rat cortex). Settings: rat cortex homogenate, 3H-Oxotremorine 1.0 nM, 30 min at 25° C., pH 7.4.
Design: species or system male Wistar rats
Excerpt: The pharmacological properties of the compounds of the invention can be illustrated by determining their capability to inhibit the specific binding of ^3 H-Oxotremorine-M (^3 H-Oxo). Birdsdall N. J. M., Hulme E. C., and Burgen A. S. V. (1980). "The Character of Muscarinic Receptors in Different Regions of the Rat Brain". Proc. Roy. Soc. London (Series B) 207,1.
^3 H-Oxo labels muscarinic receptor in the CNS (with a preference for agonist domains of the receptors). Three different sites are labelled by ^3 H-Oxo. […] Using the present experimental conditions only the high and medium affinity sites are determined.
The inhibitory effects of compounds on ^3 H-Oxo binding reflects the affinity for muscarinic acetylcholine receptors.
All preparations are performed at 0°-4° C. unless otherwise indicated. Fresh cortex (0.1-1 g) from male Wistar rats (150-250 g) is homogenized for 5-10 s in 10 ml 20 mM Hepes pH: 7.4, with an Ultra-Turrax homogenizer. The homogenizer, is rinsed with 10 ml of buffer and the combined suspension centrifuged for 15 min at 40,000×g. The pellet is washed three times with buffer. In each step the pellet is homogenized as before in 2×10 ml of buffer and centrifuged for 10 min at 40,000×g.
The final pellet is homogenized in 20 mM Hepes pH: 7.4 (100 ml per g of original tissue) and used for binding assay. Aliquots of 0.5 ml is added 25 μl of test solution and 25 μl of ^3 H-Oxotremorine (1.0 nM, final concentration) mixed and incubated for 30 min at 25° C. Non-specific binding is determined in triplicate using arecoline (1 μg/ml, final concentration) as the test substance. After incubation samples are added 5 ml of ice-cold buffer and poured directly onto Whatman GF/C glass fibre filters under suction and immediately washed 2 times with 5 ml of ice-cold buffer. The amount of radioactivity on the filters are determined by conventional liquid scintillation counting. Specific binding is total binding minus non specific binding.
Test substances are dissolved in 10 ml water (if necessary heated on a steam bath for less than 5 minutes) at a concentration of 2.2 mg/ml.
The test value will be given as IC50 (the concentration (ng/ml) of the test substance which inhibits the specific binding of ^3 H-Oxo by 50%).
IC50 =(applied test substance concentration) [formula] where Co is specific binding in control assays and Cx is the specific binding in the test assay. (The calculations assume normal mass-action kinetics).

| Structure (SMILES) | Inhibition in vitro OXO BINDING IC50 [ng/mL] |
| --- | --- |
| c1ccc(CCCSc2nsnc2[C@@H]2CN3CC[C@H]2C3)cc1 (relative stereo) [Compound 35, Endo-3-(3-(3-phenylpropylthio)-1,2,5-thiadiazol-4-yl)-1-azabicyclo[2.2.1]heptane oxalate] | 1.9 |
| CCCOc1nsnc1C1=C(Cl)C2CCCN(C1)C2 (stereo not drawn) [Compound 62, 4-Chloro-3-(3-propyloxy-1,2,5-thiadiazol-4-yl)-1-azabicyclo[3.3.1]non-3-eneoxalate] | 1.9 |
| Clc1nsnc1C1CN2CCC1CC2.O=C(O)C(=O)O (stereo not drawn) [Compound 8, 3-(3-Chloro-1,2,5-thiadiazol-4-yl)-1-azabicyclo[2.2.2]octane oxalate] | 5.2 |
| CCCCCOc1nsnc1C1CN2CCC1CC2.O=C(O)C(=O)O (stereo not drawn) [Compound 50, 3-(3-Pentyloxy-1,2,5-thiadiazol-4-yl)-1-azabicyclo[2.2.2]octane oxalate] | 1.0 |
| CSc1nsnc1C1CN2CCC1CC2.O=C(O)C(=O)O (stereo not drawn) [Compound 131, 3-(3-Methylthio-1,2,5-thiadiazol-4-yl)-1-azabicyclo[2.2.2]octane oxalate] | 0.96 |
| CCCCOc1nsnc1[C@@H]1CN2CCC[C@@H]1C2 (relative stereo) [Compound 120, Exo-6-(3-butoxy-1,2,5-thiadiazol-4-yl)-1-azabicyclo[3.2.1]octane oxalate] | 0.28 |
| CCCCCCOc1nsnc1C1(OCCCCCC)CN2CCC1CC2.O=C(O)C(=O)O (stereo not drawn) [Compound 6, 3-Hexyloxy-3-(3-hexyloxy-1,2,5-thiadiazol-4-yl)-1-azabicyclo[2.2.2]octane oxalate] | > 300 |
| CCCCSc1nsnc1[C@@H]1CN2CC[C@H]1C2 (relative stereo) [Compound 36, Endo-3-(3-butylthio-1,2,5-thiadiazol-4-yl)-1-azabicyclo[2.2.1]heptane fumarate] | 0.82 |
| CC(C)CCSc1nsnc1[C@H]1CN2CCC[C@H]1C2 (relative stereo) [Compound 77, Exo-6-(3-isopentylthio-1,2,5-thiadiazol-4-yl)-1-azabicyclo[3.2.1]octane] | 0.89 |
| c1ccc(OCCSc2nsnc2[C@@H]2CN3CCC[C@H]2C3)cc1 (relative stereo) [Compound 84, Endo-6-(3-(2-phenoxyethylthio)-1,2,5-thiadiazol-4-yl)-1-azabicyclo[3.2.1]octane oxalate] | 13 |
| CCCCCCOc1nsnc1[C@@H]1CN2CCC[C@@H]1C2 (relative stereo) [Compound 122, Exo-6-(3-hexyloxy-1,2,5-thiadiazol-4-yl)-1-azabicyclo[3.2.1]octane oxalate] | 0.67 |
| CCCCSc1nsnc1[C@H]1CN2CC[C@H]1C2 (relative stereo) [Compound 42, Exo-3-(3-butylthio-1,2,5-thiadiazol-4-yl)-1-azabicyclo[2.2.1]heptane oxalate] | 0.35 |
| CCC=CCCOc1nsnc1C1CN2CCC1CC2.O=C(O)/C=C/C(=O)O (stereo not drawn) [Compound 49, 3-(3-(3-Hexenyloxy)-1,2,5-thiadiazol-4-yl)-1-azabicyclo[2.2.2]octane fumarate] | 0.33 |
| CCCCS(=O)(=O)c1nsnc1[C@@H]1CN2CCC[C@@H]1C2 (relative stereo) [Compound 115, Exo-6-(3-butylsulfonyl-1,2,5-thiadiazol-4-yl)-1-azabicyclo[3.2.1]octane oxalate] | 0.50 |
| CCCOc1nsnc1[C@@H]1CN2CCC[C@@H]1C2 (relative stereo) [Compound 119, Exo-6-(3-propoxy-1,2,5-thiadiazol-4-yl)-1-azabicyclo[3.2.1]octane oxalate] | 0.30 |
